Measurements reported in patent US9399759B2, “Method for producing neurospheres” (Keio University, priority 2008, dated 2016).

Columns and labels:
[1] = tested on: dedifferentiation factor-introduced fibroblasts; experiment: Effect of cell death inhibitors on induction of differentiation into mouse neurospheres (Example 2); format: cell-based; conditions: Day 20 of the culture, FIG. 4A
Method: (§1) The dedifferentiation factor-introduced fibroblasts cultured as above were dissociated by washing with 0.25% trypsin EDTA, resuspended in 10 ml of DMEM/F-12 serum-free medium (1:1, Invitrogen; containing 0.6% D-glucose, 5 mM HEPES, 3 mM NaHCO3, 2 mM glutamine, 25 ug/ml insulin, 100 ug/ml transferrin, 20 nM progesterone, 60 uM putrescine and 30 nM sodium selenate) supplemented with LIF (recombinant human LIF; Chemi-Con, 100 U/ml) and FGF (PeproTech, 20 ng/ml) at the density of 50 cells/ul, seeded in bacterial plastic culture dishes, and cultured in suspension under the conditions of 37° C. and 5% CO2 with exchanging the culture media every 14 days. On Day 3 and Day 20 during the suspension culture, the states of the cells were observed.
In order to examine the improvement of the efficiency for the induction of differentiation into neurospheres by cell death inhibitors of N-acetyl-L-cysteine (NAC) and 8-chlorophenylthio (pCPT-cAMP), a membrane-permeable analog of cAMP, media supplemented with either or both of 1 mM of NAC(Sigma) and 100 uM of pCPT-cAMP (Sigma) were used in the suspension culture as described in Example 1. Other procedures were followed in the same way as described in Example 1, and numbers of neurospheres on Day 20 of the culture were counted.

[2] = tested on: human fibroblasts; experiment: Effect of LIF, cAMP and Y27632 on number of human neurospheres formed (Example 2); format: cell-based; conditions: media with cAMP in place of or in addition to LIF, or cAMP, FIG. 4B
Method: as §1
In the case of human fibroblasts, the culture media were supplemented with cAMP in place of or in addition to LIF or with cAMP, LIF and a ROCK inhibitor Y27632, and the number of the neurospheres obtained from 250000 cells was counted.

Molecule	number of neurospheres as compared to the Control Group ([1]; only NAC added, 1 mM)	effect on neurosphere formation (number of neurospheres obtained from 250000 cells) [2]	increase of number of neurospheres per 10 ml of the medium as compared to Control Group ([1]; only pCPT-cAMP added, 100 uM, adult mouse fibroblasts)
CC(=O)N[C@@H](CS)C(=O)O [NAC, N-acetyl-L-cysteine]	no difference was observed		
C[C@@H](N)[C@H]1CC[C@H](C(=O)Nc2ccncc2)CC1 [Y27632]		no effect	
Nc1ncnc2c1nc(Sc1ccc(Cl)cc1)n2[C@@H]1O[C@@H]2COP(=O)([O-])O[C@H]2[C@H]1O.[Na+] [pCPT-cAMP, 8-chlorophenylthio (pCPT-cAMP)]		additive effect	over 100 fold
LIF: recombinant human LIF; Chemi-Con; growth factor added to the medium		additive effect	
